Reference: patent US12649750B2, “Macrocyclic compounds, compositions, and methods of using thereof” (Sionna Therapeutics Inc., priority 2022, dated 2026)

Columns and labels:
[1] = biological target: T1, NBD1 (Homo sapiens, UniProt P13569); experiment: Aggregation analysis using differential static light scattering (DSLS), thermal stability of NBD1 (ΔTagg); assay type: binding; details: ΔTagg versus DMSO control, NBD1 0.2 mg/ml
T1 construct: Purified recombinant NBD1 was produced using previously described methods; made in house
How it was run: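 Differential static light scattering read from 25° C. to 70° C. every 0.5° C., ramp 1° C./min, on recombinant NBD1 (0.2 mg/ml; Tris/NaCl/MgCl2 buffer with 2 mM ATP, 2 mM DTT, pH 7.6, 1% glycerol) plus compound. Reported ΔTagg subtracts averaged DMSO Tagg from inflection-point Tagg; categories A ≤5, B >5-10, C >10-25° C.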

[2] = biological target: T2, CFTR (Homo sapiens, UniProt P13569, DEL508-508); experiment: TECC24 AUC fold over DMSO @10 μM, CFTR-mediated transepithelial chloride transport in CF-HBE cells; assay type: cell-based; details: test agent AUC divided by DMSO vehicle AUC, primary CF-HBE cells, ΔF508 homozygous donor, 48 hours incubation
T2 construct: Primary human bronchial epithelial cells from a ΔF508 homozygous CF donor; host or cells: primary human bronchial epithelial cells (CF-HBE), ΔF508 homozygous donor
How it was run: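 Value is ratio of test-agent to DMSO AUC of equivalent transepithelial Cl− current, integrated from forskolin (10 μM) stimulation to CFTR inhibitor-172 (20 μM) block, with benzamil 10 μM present. CF-HBE (ΔF508/ΔF508) cultures had 48 h compound exposure at 10 μM, 36.5° C before recording.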

T1 sequence (P13569 423-646 limits assumed): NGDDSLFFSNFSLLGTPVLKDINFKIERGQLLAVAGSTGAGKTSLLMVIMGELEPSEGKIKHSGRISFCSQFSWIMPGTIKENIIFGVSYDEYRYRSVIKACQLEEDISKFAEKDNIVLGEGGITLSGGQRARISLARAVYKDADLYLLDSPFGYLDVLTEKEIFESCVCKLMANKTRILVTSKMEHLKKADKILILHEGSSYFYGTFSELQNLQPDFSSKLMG
T2 sequence (P13569 with tags, fused parts or gaps DEL508-508): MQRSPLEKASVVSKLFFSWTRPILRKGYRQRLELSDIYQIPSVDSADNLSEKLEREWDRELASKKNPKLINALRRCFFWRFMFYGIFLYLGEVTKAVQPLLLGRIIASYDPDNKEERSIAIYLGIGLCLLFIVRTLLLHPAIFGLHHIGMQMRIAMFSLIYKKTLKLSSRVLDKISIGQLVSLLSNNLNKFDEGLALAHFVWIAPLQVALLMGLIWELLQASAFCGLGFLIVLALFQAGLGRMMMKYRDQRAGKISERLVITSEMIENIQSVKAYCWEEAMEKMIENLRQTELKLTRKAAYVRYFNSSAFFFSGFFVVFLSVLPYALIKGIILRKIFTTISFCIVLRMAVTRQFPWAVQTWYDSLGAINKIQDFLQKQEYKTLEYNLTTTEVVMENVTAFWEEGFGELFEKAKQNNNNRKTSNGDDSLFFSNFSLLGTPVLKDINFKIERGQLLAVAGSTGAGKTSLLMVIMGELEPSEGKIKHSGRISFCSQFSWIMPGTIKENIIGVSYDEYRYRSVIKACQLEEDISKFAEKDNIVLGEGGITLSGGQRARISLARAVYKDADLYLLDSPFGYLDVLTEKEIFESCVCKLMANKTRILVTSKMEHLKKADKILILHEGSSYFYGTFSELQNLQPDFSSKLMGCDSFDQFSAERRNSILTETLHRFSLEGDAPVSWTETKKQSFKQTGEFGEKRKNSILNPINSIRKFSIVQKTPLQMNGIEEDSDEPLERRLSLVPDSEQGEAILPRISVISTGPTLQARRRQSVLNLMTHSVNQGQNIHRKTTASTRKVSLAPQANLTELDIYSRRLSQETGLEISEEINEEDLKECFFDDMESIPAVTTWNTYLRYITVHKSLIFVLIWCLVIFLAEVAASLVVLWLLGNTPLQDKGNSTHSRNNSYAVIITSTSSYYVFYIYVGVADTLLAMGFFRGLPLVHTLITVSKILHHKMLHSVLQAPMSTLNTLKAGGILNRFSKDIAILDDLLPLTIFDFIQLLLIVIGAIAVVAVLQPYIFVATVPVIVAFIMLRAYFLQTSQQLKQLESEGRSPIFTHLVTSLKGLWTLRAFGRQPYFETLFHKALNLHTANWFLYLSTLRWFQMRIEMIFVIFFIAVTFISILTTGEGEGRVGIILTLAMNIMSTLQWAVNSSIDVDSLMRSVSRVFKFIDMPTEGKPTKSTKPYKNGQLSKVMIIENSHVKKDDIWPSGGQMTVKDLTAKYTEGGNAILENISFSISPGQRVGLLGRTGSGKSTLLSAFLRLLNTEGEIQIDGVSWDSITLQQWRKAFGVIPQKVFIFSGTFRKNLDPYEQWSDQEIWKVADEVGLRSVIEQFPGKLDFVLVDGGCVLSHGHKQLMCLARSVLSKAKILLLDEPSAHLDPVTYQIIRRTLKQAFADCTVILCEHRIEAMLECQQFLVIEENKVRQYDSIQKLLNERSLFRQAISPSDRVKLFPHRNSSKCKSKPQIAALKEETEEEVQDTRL

Structure (SMILES) | DSLS 3D (100 μM ΔT) [1] | TECC (AUC, 10 μM) [2]
Cn1nc2nc1-c1cc(ccn1)Oc1c(F)c(F)c3[nH]ccc3c1CCS(=O)(=O)CC(C)(C)CCC[C@]2(C)c1cccc(CC(=O)O)c1 [Compound 257, 2-[3-[(6R)-21,22-difluoro-3,6,10,10-tetramethyl-12,12-dioxo-24-oxa-12λ6-thia-3,4,19,28,30-pentazapentacyclo[23.3.1.12,5.015,23.016,20]triaconta-1(29),2(30),4,15,17,20,22,25,27-nonaen-6-yl]phenyl]acetic Acid] | C (a value greater than 10 °C and less than or equal to 25 °C is marked “C”) | B (a value between 12-20 is marked “B”)
Cn1nc2nc1-c1cc(ccn1)Oc1c(F)c(F)c3[nH]ccc3c1CCS(=O)(=O)CC(C)(C)CCC[C@]2(C)c1cccc(CCO)c1 [Compound 258, 2-[3-[(6R)-21,22-Difluoro-3,6,10,10-tetramethyl-12,12-dioxo-24-oxa-12λ6-thia-3,4,19,28,30-pentazapentacyclo[23.3.1.12,5.015,23.016,20]triaconta-1(29),2(30),4,15,17,20,22,25,27-nonaen-6-yl]phenyl]ethanol] | C (a value greater than 10 °C and less than or equal to 25 °C is marked “C”) | C (a value between 20 and 80 is marked “C”)
C[C@@H](Cc1cccc([C@@]2(C)CCCC(C)(C)CS(=O)(=O)CCc3c(c(F)c(F)c4[nH]ccc34)Oc3ccnc(c3)-c3nc2nn3C)c1)C(=O)O [Compound 262, (2S)-3-[3-[(6R)-21,22-Difluoro-3,6,10,10-tetramethyl-12,12-dioxo-24-oxa-12λ6-thia-3,4,19,28,30-pentazapentacyclo[23.3.1.12,5.015,23.016,20]triaconta-1(29),2(30),4,15,17,20,22,25,27-nonaen-6-yl]phenyl]-2-methyl-propanoic Acid] | C (a value greater than 10 °C and less than or equal to 25 °C is marked “C”) | C (a value between 20 and 80 is marked “C”)
C[C@@H](O)Cc1cccc([C@@]2(C)CCCC(C)(C)CS(=O)(=O)CCc3c(c(F)cc4[nH]ccc34)Sc3ccc(F)c(c3)-c3nc2nn3C)c1 [Compound 263, (2R)-1-[3-[(6R)-22,28-difluoro-3,6,10,10-tetramethyl-12,12-dioxo-12λ6,24-dithia-3,4,19,30-tetrazapentacyclo[23.3.1.12,5.015,23.016,20]triaconta-1(29),2(30),4,15,17,20,22,25,27-nonaen-6-yl]phenyl]propan-2-ol] | B (a value above 5 °C and less than or equal to 10 °C is marked “B”) | C (a value between 20 and 80 is marked “C”)
COC(=O)[C@H](C)Cc1cccc([C@@]2(C)CCCC(C)(C)CS(=O)(=O)CCc3c(c(F)cc4[nH]ccc34)Oc3cnnc(c3)-c3nc2nn3C)c1 [Compound 265, Methyl (2R)-3-[3-[(6R)-22-fluoro-3,6,10,10-tetramethyl-12,12-dioxo-24-oxa-12λ6-thia-3,4,19,27,28,30-hexazapentacyclo[23.3.1.12,5.015,23.016,20]triaconta-1(29),2(30),4,15,17,20,22,25,27-nonaen-6-yl]phenyl]-2-methyl-propanoate] | B (a value above 5 °C and less than or equal to 10 °C is marked “B”) | C (a value between 20 and 80 is marked “C”)
C[C@@H](Cc1cccc([C@@]2(C)CCCC(C)(C)CS(=O)(=O)CCc3c(c(F)c(F)c4[nH]ccc34)[S+]([O-])c3ccnc(c3)-c3nc2nn3C)c1)C(=O)O (stereo partly drawn) [Compound 267, (2S)-3-[3-[(6R)-21,22-Difluoro-3,6,10,10-tetramethyl-12,12,24-trioxo-12λ6,24λ4-dithia-3,4,19,28,30-pentazapentacyclo[23.3.1.12,5.015,23.016,20]triaconta-1(29),2(30),4,15,17,20,22,25,27-nonaen-6-yl]phenyl]-2-methyl-propanoic Acid] | C (a value greater than 10 °C and less than or equal to 25 °C is marked “C”) | C (a value between 20 and 80 is marked “C”)
